# Reference: US20260240795A1 (KYOTO P[…] UNIVERSITY CORPORATION, priority 2023, published 2026)
# Tested on: AMPK
# Assay: AMPK activating activity in HK-2 cells treated with tunicamycin, Western blot
# Assay type: cell-based, human
# Details: tunicamycin 5 μg/ml with or without sephin1 1 μM, 24 hours, compared to untreated cells
# Method: The HK-2 cell line is a proximal tubular cell line derived from normal kidney immortalized by transduction with human papilloma virus 16 (HPV-16) E6/E7 genes.
# HK-2 cells were seeded in a six well plate at a cell density of 7×10^4 cells per well 24 hours prior to the start of the study (T−24). […] 24 hours later (at T24) cells were recovered and protein was analyzed by Western blot analysis.
substance,measurement,value
tunicamycin,AMPK levels (AMPK/GAPDH),reduced
